Assay type in all cases: in vivo
The test system of one assay is Erysiphe cichoracearum. The assay can be described thus: Powdery Mildew of Cucumber (ERYSCI) fungicidal activity. The note with it: Golovinomyces cichoracearum, 24 h, 1DP (1 Day Protectant), read-out: ERYSCI Disease Control. On the procedure: Technical grades of materials were dissolved in acetone, which were then mixed with nine volumes of H2O containing 110 ppm Triton X-100. The fungicide solutions were applied onto wheat seedlings using an automated booth sprayer to run-off. All sprayed plants were allowed to air dry prior to further handling. All fungicides were evaluated using the aforementioned method for their activity vs. all target diseases, unless stated otherwise. Wheat leaf blotch and brown rust activity were also evaluated using track spray applications, in which case the fungicides were formulated as EC formulations, containing 0.1% Trycol 5941 in the spray solutions. Wheat plants (variety Yuma) were grown from seed in a greenhouse in 50% mineral soil/50% soil-less Metro mix until the first leaf was fully emerged, with 7-10 seedlings per pot. These plants were inoculated with an aqueous spore suspension of Zymoseptoria tritici either prior to or after fungicide treatments. After inoculation the plants were kept in 100% relative humidity (one day in a dark dew chamber followed by two to three days in a lighted dew chamber at 20° C.) to permit spores to germinate and infect the leaf. The plants were then transferred to a greenhouse set at 20° C. for disease to develop. When disease symptoms were fully expressed on the 1st leaves of untreated plants, infection levels were assessed on a scale of 0 to 100 percent disease severity. Percent disease control was calculated using the ratio of disease severity on treated plants relative to untreated plants. Example F: Evaluation of Fungicidal Activity: Powdery Mildew of Cucumber (Erysiphe cichoracearum; Bayer Code […]) Cucumber seedlings (variety Bush Pickle) were grown in soil-less Metro mix, with one plant per pot, and used in the test when 12 to 14 days old. Plants were inoculated with a spore suspension 24 hr following fungicide treatments. After inoculation the plants remained in the greenhouse set at 20° C. until disease was fully expressed. Fungicide formulation, application and disease assessment on the sprayed leaves followed the procedures as described in the Example A.

Assay [1] relates to Blumeria graminis f.sp. hordei. Kind of assay: Barley Powdery Mildew (ERYSGH) fungicidal activity. The settings on record: 24 h, 1DP (1 Day Protectant), read-out: ERYSGH Disease Control. The protocol: Technical grades of materials were dissolved in acetone, which were then mixed with nine volumes of H2O containing 110 ppm Triton X-100. The fungicide solutions were applied onto wheat seedlings using an automated booth sprayer to run-off. All sprayed plants were allowed to air dry prior to further handling. All fungicides were evaluated using the aforementioned method for their activity vs. all target diseases, unless stated otherwise. Wheat leaf blotch and brown rust activity were also evaluated using track spray applications, in which case the fungicides were formulated as EC formulations, containing 0.1% Trycol 5941 in the spray solutions. Wheat plants (variety Yuma) were grown from seed in a greenhouse in 50% mineral soil/50% soil-less Metro mix until the first leaf was fully emerged, with 7-10 seedlings per pot. These plants were inoculated with an aqueous spore suspension of Zymoseptoria tritici either prior to or after fungicide treatments. After inoculation the plants were kept in 100% relative humidity (one day in a dark dew chamber followed by two to three days in a lighted dew chamber at 20° C.) to permit spores to germinate and infect the leaf. The plants were then transferred to a greenhouse set at 20° C. for disease to develop. When disease symptoms were fully expressed on the 1st leaves of untreated plants, infection levels were assessed on a scale of 0 to 100 percent disease severity. Percent disease control was calculated using the ratio of disease severity on treated plants relative to untreated plants. Example J: Evaluation of Fungicidal Activity: Barley Powdery Mildew (Blumeria graminis f.sp. hordei; Synonym: Erysiphe graminis f.sp. hordei; Bayer Code […]) Barley seedlings (variety Harrington) were propagated in soil-less Metro mix, with each pot having 8 to 12 plants, and used in the test when first leaf was fully emerged. Test plants were inoculated by dusting with infected stock plants 24 hr after fungicide treatments. After inoculation the plants were kept in a greenhouse set at 20° C. for disease to develop. Fungicide formulation, application and disease assessment on the sprayed leaves followed the procedures as described in the Example A.

A further assay relates to Cercospora beticola. The assay can be described thus: Leaf Spot of Sugar Beets (CERCBE) fungicidal activity. The note with it: 24 h, 1DP (1 Day Protectant), sugar beet, read-out: CERCBE Disease Control. The protocol: Technical grades of materials were dissolved in acetone, which were then mixed with nine volumes of H2O containing 110 ppm Triton X-100. The fungicide solutions were applied onto wheat seedlings using an automated booth sprayer to run-off. All sprayed plants were allowed to air dry prior to further handling. All fungicides were evaluated using the aforementioned method for their activity vs. all target diseases, unless stated otherwise. Wheat leaf blotch and brown rust activity were also evaluated using track spray applications, in which case the fungicides were formulated as EC formulations, containing 0.1% Trycol 5941 in the spray solutions. Wheat plants (variety Yuma) were grown from seed in a greenhouse in 50% mineral soil/50% soil-less Metro mix until the first leaf was fully emerged, with 7-10 seedlings per pot. These plants were inoculated with an aqueous spore suspension of Zymoseptoria tritici either prior to or after fungicide treatments. After inoculation the plants were kept in 100% relative humidity (one day in a dark dew chamber followed by two to three days in a lighted dew chamber at 20° C.) to permit spores to germinate and infect the leaf. The plants were then transferred to a greenhouse set at 20° C. for disease to develop. When disease symptoms were fully expressed on the 1st leaves of untreated plants, infection levels were assessed on a scale of 0 to 100 percent disease severity. Percent disease control was calculated using the ratio of disease severity on treated plants relative to untreated plants. Example G: Evaluation of Fungicidal Activity: Leaf Spot of Sugar Beets (Cercospora beticola; Bayer Code CERCBE) Sugar beet plants (variety HH88) were grown in soil-less Metro mix and trimmed regularly to maintain a uniform plant size prior to test. Plants were inoculated with a spore suspension 24 hr after fungicide treatments. Inoculated plants were kept in a dew chamber at 22° C. for 48 hr then incubated in a greenhouse set at 24° C. under a clear plastic hood with bottom ventilation until disease symptoms were fully expressed. Fungicide formulation, application and disease assessment on the sprayed leaves followed the procedures as described in the Example A.

As to `COc1ccnc(C(=O)N[C@H]2COCC[C@H](Cc3ccccc3)[C@@H](OCC(C)C)[C@H](C)OC2=O)c1OCOC(C)=O` [Compound 20], the pest or weed control at 100 ppm in the assay on Erysiphe cichoracearum was < 80%; in assay [1], < 80%; in the assay with Cercospora beticola, > 80%.
Regarding `COc1ccnc(C(=O)N[C@H]2CCCC[C@H](Oc3ccccc3)[C@@H](Oc3ccccc3)[C@H](C)OC2=O)c1OCOC(C)=O` [Compound 19], the pest or weed control at 100 ppm is < 80% with Erysiphe cichoracearum, < 80% in assay [1] and > 80% in the assay on Cercospora beticola.
As for `CCCCO[C@H]1CCOC[C@H](NC(=O)c2nccc(OC)c2OCOC(C)=O)C(=O)O[C@@H](C)[C@@H]1OCc1ccccc1` [Compound 2], the figures for the pest or weed control at 100 ppm (in the assay on Erysiphe cichoracearum; in assay [1]; in the assay with Cercospora beticola) were < 80%, < 80% and > 80%, respectively.
On to `CCCO[C@H]1[C@H](C)OC(=O)[C@@H](NC(=O)c2nccc(OC)c2OCOC(C)=O)CCCC[C@@H]1Oc1ccccc1` [Compound 18], for which the pest or weed control at 100 ppm with Erysiphe cichoracearum is < 80%; in assay [1] it was < 80%; in the assay on Cercospora beticola, > 80%.
Consider `CCCCO[C@H]1CCOC[C@H](NC(=O)c2nccc(OC)c2OCOC(C)=O)C(=O)O[C@@H](C)[C@@H]1OC(=O)c1ccccc1` [Compound 4], for which the pest or weed control at 100 ppm (in assay [1]; with Cercospora beticola) was < 80% throughout.
Consider `COc1ccnc(C(=O)N[C@H]2COCC[C@@H](OCC(C)C)[C@@H](OCC(C)C)[C@H](C)OC2=O)c1OCOC(C)=O` [Compound 6], for which the pest or weed control at 100 ppm in the assay with Cercospora beticola was > 80%.
For the compound `COc1ccnc(C(=O)N[C@H]2CCOC[C@H](Oc3ccccc3)[C@@H](Oc3ccccc3)[C@H](C)OC2=O)c1OCOC(C)=O` [Compound 37], the pest or weed control at 100 ppm in the assay with Cercospora beticola is > 80%.
Consider `COc1ccnc(C(=O)N[C@H]2COCC[C@H](Cc3ccccc3)[C@@H](OCC(C)C)[C@H](C)OC2=O)c1OC(C)=O` [Compound 21], for which the pest or weed control at 100 ppm (with Erysiphe cichoracearum; in assay [1]; in the assay on Cercospora beticola) was < 80% in each case.
Take `CCCCO[C@H]1CCOC[C@H](NC(=O)c2nccc(OC)c2OCOC(C)=O)C(=O)O[C@@H](C)[C@@H]1OC(=O)C1CC1` [Compound 5]: the pest or weed control at 100 ppm with Cercospora beticola was < 80%.
In the case of `CCCCO[C@H]1CCOC[C@H](NC(=O)c2nccc(OC)c2OCOC(C)=O)C(=O)O[C@@H](C)[C@@H]1OC(=O)C(C)C` [Compound 3], the pest or weed control at 100 ppm (in assay [1]; in the assay on Cercospora beticola) was < 80% each time.
On to `CCCCCO[C@H]1[C@H](C)OC(=O)[C@@H](NC(=O)c2nccc(OC)c2OCOC(C)=O)CCCC[C@@H]1Oc1ccccc1` [Compound 17], for which the pest or weed control at 100 ppm is < 80% in the assay on Erysiphe cichoracearum, < 80% in assay [1] and > 80% in the assay on Cercospora beticola.

These data come from patent US20180002319A1, “MACROCYCLIC PICOLINAMIDE COMPOUNDS WITH FUNGICIDAL ACTIVITY” (DOW AGROSCIENCES LLC, priority 2014, published 2018).
